The structures appear in SMILES notation.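 Interpolation was linear, between the two tested concentrations surrounding the appropriate level; five concentrations were tested over 48 hours in 96-well plates. GI50 = concentration required for 50% inhibition of growth.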 Active and inactive are the calls of the source. No stated cut-off is given here; in the data, active = GI50 up to about 1.1 µM and inactive = higher. Residues, ends and D or L forms follow the SMILES beside them. Groups on a side chain read outwards from the residue. *: point of attachment. Cbz = O=C(OCc1ccccc1)*; Boc = CC(C)(C)OC(=O)* Where only a bound is given, the exact number is not on record here.

Test systems include NCI-H226; HOP-62; NCI-H460; MOLT-4; EKVX; SK-MEL-5; LOX IMVI; COLO 205; NCI-H23; SF-539; SF-268; SNB-19; A498; HCT-15; Malme-3M; OVCAR-8; HL-60; RXF 393; OVCAR-4.
What all share (assay): NCI anticancer screen, dose series, 48 h

Regarding `COc1ccc2c(c1)CC[C@@H]1C2CC[C@]2(C)C(=N\O)/C(=N/O)CC12` (stereo partly drawn), the GI50 was 11 µM (inactive) with NCI-H226; 11.7 µM (inactive) with HOP-62; 3.41 µM (inactive) with NCI-H460; 4.79 µM (inactive) with MOLT-4; 18.7 µM (inactive) with EKVX; 12.7 µM (inactive) in the experiment with SK-MEL-5. For the same compound, the GI50 in the experiment on LOX IMVI is 2.43 µM (inactive); in the experiment on COLO 205, 14.3 µM (inactive); in the experiment on NCI-H23, 10.2 µM (inactive); in the experiment on SF-539, 18.5 µM (inactive); with SF-268, 17.9 µM (inactive); with SNB-19, 16.6 µM (inactive). The GI50 in the experiment with A498 was 19.1 µM (inactive); in the experiment with HCT-15, 12.4 µM; in the experiment with Malme-3M it was 17.7 µM (inactive); in the experiment with OVCAR-8 it was 16.5 µM (inactive); with HL-60 it was 14.2 µM (inactive).
Turning to `CCOc1ccc(NC(=O)CC2SC(Nc3ccc(C)cc3)=NC2=O)cc1` (stereo not drawn), the GI50 with RXF 393 was > 100 µM (inactive); with OVCAR-4, > 100 µM (inactive); with HOP-62, > 100 µM (inactive); with NCI-H460 it was > 100 µM (inactive); with MOLT-4 it was 35.2 µM (inactive); in the experiment on EKVX, > 100 µM (inactive). Further, the GI50 with SK-MEL-5, with LOX IMVI, in the experiment on COLO 205, in the experiment with NCI-H23, in the experiment on SF-539 and with SF-268 was > 100 µM (inactive) each time. In addition, the GI50 was > 100 µM (inactive) in the experiment on SNB-19; > 100 µM (inactive) in the experiment with A498; > 100 µM with HCT-15; > 100 µM (inactive) in the experiment on Malme-3M; > 100 µM (inactive) with OVCAR-8.
`CCCN1CN(C(C(=O)N[C@@H]2C(=O)N3C2SC(C)(C)C3C(=O)O)c2ccc(O)cc2)CSC1=S` (stereo partly drawn): the GI50 with OVCAR-4, in the experiment on HOP-62, in the experiment with NCI-H460, in the experiment on MOLT-4, in the experiment with EKVX and with SK-MEL-5 was > 100 µM (inactive) in each case. For the same compound, the GI50 in the experiment with LOX IMVI was 97.9 µM (inactive); in the experiment with COLO 205, 29.8 µM (inactive); with NCI-H23, > 100 µM (inactive); with SF-539, > 100 µM (inactive); with SF-268, > 100 µM (inactive); in the experiment on SNB-19 it was > 100 µM (inactive). The GI50 in the experiment on A498 was > 100 µM (inactive); with HCT-15, > 100 µM; with Malme-3M, > 100 µM (inactive); in the experiment with OVCAR-8, > 100 µM (inactive); with HL-60 it was > 100 µM (inactive).
With `O=C1c2cccc(O)c2C(=O)c2c(O)cccc21` [DANTHRON], the GI50 was > 100 µM (inactive) in the experiment with NCI-H226; 92.5 µM (inactive) with RXF 393; 26.3 µM (inactive) in the experiment with OVCAR-4; > 100 µM (inactive) in the experiment on HOP-62; 30.3 µM (inactive) in the experiment on NCI-H460; 40.1 µM (inactive) in the experiment with MOLT-4. For the same compound, the GI50 is 98.9 µM (inactive) in the experiment with EKVX; 55.8 µM (inactive) in the experiment with LOX IMVI; 22 µM (inactive) with COLO 205; > 100 µM (inactive) with NCI-H23; 53.6 µM (inactive) with SF-539; > 100 µM (inactive) in the experiment with SF-268. Also, the GI50 was > 100 µM (inactive) in the experiment on SNB-19, 17.9 µM (inactive) with A498, 74.8 µM with HCT-15 and > 100 µM (inactive) in the experiment on OVCAR-8.
For the compound `Nc1ncnc2c1N=CN(Oc1ccccc1)N2`, the GI50 in the experiment with NCI-H226, in the experiment with RXF 393, in the experiment with OVCAR-4, in the experiment with NCI-H460, with MOLT-4 and in the experiment on EKVX was > 100 µM (inactive) throughout. In addition, the GI50 with SK-MEL-5 was > 100 µM (inactive); in the experiment with COLO 205, > 100 µM (inactive); with NCI-H23, > 100 µM (inactive); with SF-539, > 100 µM (inactive); with HCT-15 it was > 100 µM; in the experiment with Malme-3M it was 18.3 µM (inactive). Further, in the experiment on OVCAR-8, the GI50 was > 100 µM (inactive).
With `CN(/C(=N\O)c1ccccc1)c1ccccc1`, the GI50 with NCI-H226 is 21.3 µM (inactive); in the experiment on OVCAR-4, 33.7 µM (inactive); in the experiment with HOP-62, 22.9 µM (inactive); in the experiment with NCI-H460, 32.5 µM (inactive); in the experiment with EKVX, 23.3 µM (inactive); with LOX IMVI it was 22.6 µM (inactive). The GI50 with COLO 205 was 95.9 µM (inactive); with NCI-H23 it was 24.4 µM (inactive); in the experiment on SF-539 it was 22.6 µM (inactive); in the experiment on SF-268, 28.1 µM (inactive); in the experiment on SNB-19 it was 27.9 µM (inactive); with Malme-3M, 39.1 µM (inactive). For the same compound, the GI50 in the experiment on OVCAR-8 is 24.8 µM (inactive); with HL-60, 19.7 µM (inactive).
In the case of `CCc1cc2c(oc3cc(C)ccc32)c(=O)n1C`, the GI50 in the experiment on NCI-H226, in the experiment with RXF 393, in the experiment on OVCAR-4, with NCI-H460, in the experiment on MOLT-4 and in the experiment with EKVX was > 10 µM (inactive) throughout. Further, the GI50 was > 10 µM (inactive) in the experiment with LOX IMVI; > 10 µM (inactive) in the experiment on NCI-H23; > 10 µM (inactive) in the experiment on SF-539; > 10 µM (inactive) in the experiment on SF-268; > 10 µM (inactive) with SNB-19; > 10 µM in the experiment on HCT-15. Further, the GI50 in the experiment with Malme-3M, in the experiment on OVCAR-8 and with HL-60 was > 10 µM (inactive) in each case.
In the case of `COc1c(Sc2ccccc2)cc(Sc2ccccc2)c2cccnc12`, the GI50 was 11.8 µM (inactive) with RXF 393; 16.2 µM (inactive) in the experiment on OVCAR-4; 34.9 µM (inactive) in the experiment with HOP-62; 20.2 µM (inactive) in the experiment on NCI-H460; 19.5 µM (inactive) with MOLT-4; 28.2 µM (inactive) in the experiment on EKVX. In addition, the GI50 in the experiment with SK-MEL-5 is 16.4 µM (inactive); in the experiment with LOX IMVI, 17.6 µM (inactive); in the experiment on COLO 205 it was 19.6 µM (inactive); with NCI-H23, 19.5 µM (inactive); with SF-539 it was 26.2 µM (inactive); in the experiment with SF-268, 37.3 µM (inactive). Besides, the GI50 is 31.8 µM (inactive) in the experiment on SNB-19; 29.1 µM (inactive) in the experiment on A498; 15.4 µM in the experiment with HCT-15; 15.1 µM (inactive) in the experiment on Malme-3M; 27.4 µM (inactive) in the experiment on OVCAR-8.
For `C=C(C(=C)N1N=NC2C3CCC(C3)C21)N1N=NC2C3CCC(C3)C21` (stereo not drawn), the GI50 was > 100 µM (inactive) in the experiment with RXF 393; > 100 µM (inactive) in the experiment on OVCAR-4; > 100 µM (inactive) in the experiment with HOP-62; > 100 µM (inactive) with NCI-H460; 41.1 µM (inactive) in the experiment with MOLT-4; > 100 µM (inactive) with SK-MEL-5. The GI50 was 68.5 µM (inactive) in the experiment on LOX IMVI; > 100 µM (inactive) in the experiment on COLO 205; > 100 µM (inactive) with NCI-H23; > 100 µM (inactive) in the experiment on SF-539; > 100 µM (inactive) in the experiment on SF-268; > 100 µM (inactive) in the experiment with SNB-19. Also, the figures for the GI50 in the experiment on Malme-3M, in the experiment on OVCAR-8 and with HL-60 were > 100 µM (inactive), > 100 µM (inactive) and 16.9 µM (inactive), respectively.
Take `CC(=O)CC(=O)ON(C)C(C)=O`: the GI50 was > 100 µM (inactive) in the experiment with NCI-H226; > 100 µM (inactive) with RXF 393; 29.2 µM (inactive) with OVCAR-4; > 100 µM (inactive) in the experiment with HOP-62; > 100 µM (inactive) in the experiment on NCI-H460; > 100 µM (inactive) in the experiment with MOLT-4. For the same compound, the GI50 is > 100 µM (inactive) with SK-MEL-5; > 100 µM (inactive) with LOX IMVI; > 100 µM (inactive) with COLO 205; 43.4 µM (inactive) in the experiment on NCI-H23; > 100 µM (inactive) with SF-539; > 100 µM (inactive) in the experiment on SF-268. Further, the GI50 in the experiment with SNB-19, in the experiment on Malme-3M, with OVCAR-8 and in the experiment on HL-60 was > 100 µM (inactive) each time.
As for `CC(C)(C)OC(=O)NC(CCCCNC(=O)CNC(=O)OCc1ccccc1)C(=O)NC(CCCCNC(=O)CNC(=O)OCc1ccccc1)C(=O)NC(CCCCNC(=O)CNC(=O)OCc1ccccc1)C(=O)NC(CCCCNC(=O)CNC(=O)OCc1ccccc1)C(=O)O` (stereo not drawn) (Boc-K([Gly-Cbz])K([Gly-Cbz])K([Gly-Cbz])K([Gly-Cbz])-OH; configuration not given here), the GI50 with NCI-H226 is > 100 µM (inactive); with OVCAR-4 it was > 10 µM (inactive); in the experiment with HOP-62, > 100 µM (inactive); in the experiment with NCI-H460, > 100 µM (inactive); with MOLT-4, > 100 µM (inactive); in the experiment with SK-MEL-5, > 100 µM (inactive). In addition, the GI50 in the experiment on LOX IMVI is > 100 µM (inactive); with NCI-H23, > 100 µM (inactive); with SF-268, > 100 µM (inactive); in the experiment with SNB-19 it was > 100 µM (inactive); with HCT-15, > 100 µM; in the experiment with Malme-3M it was > 100 µM (inactive). Further, the GI50 with OVCAR-8 and with HL-60 was > 100 µM (inactive) in each case.
Take `CCCC(=O)N[C@@H](Cc1cc(I)c(O)c(I)c1)C(=O)NCCCNCCCCNCCCNC(=O)[C@@H](N)CCCN=C(N)N`: the GI50 was > 100 µM (inactive) in the experiment on NCI-H226; > 100 µM (inactive) in the experiment on RXF 393; 33.8 µM (inactive) with HOP-62; 34.2 µM (inactive) in the experiment on NCI-H460; 71.6 µM (inactive) with MOLT-4; > 100 µM (inactive) in the experiment on EKVX. Also, the GI50 with SK-MEL-5 was 36.6 µM (inactive); with LOX IMVI it was 94 µM (inactive); with COLO 205, 40.6 µM (inactive); in the experiment with NCI-H23 it was 31.4 µM (inactive); in the experiment on SF-539 it was 10.4 µM (inactive); in the experiment with SF-268, > 10 µM (inactive). Further, the GI50 in the experiment on SNB-19 was > 100 µM (inactive); in the experiment on HCT-15, > 100 µM; with Malme-3M, > 100 µM (inactive); in the experiment with OVCAR-8 it was > 100 µM (inactive); in the experiment with HL-60 it was 33.7 µM (inactive).

Values taken from ChEMBL document CHEMBL1201862, “PubChem BioAssay data set” (2004).
